Results as given in US20150148311A1, “NON-SYSTEMIC TGR5 AGONISTS” (Ardelyx, Inc., priority 2011, published 2015).

What was measured:
[1] = target: T1, human TGR5 (Homo sapiens, UniProt Q8TDU6); test: Cell-based TGR5 assay, HEK293 cells stably expressing human TGR5, cAMP by HTRF; conditions: HEK293 cells stably expressing human TGR5, 30 min at 37 C, 0.05 nM to 10 μM; for EC50: read-out: pEC50 Human TGR5 (converted)
T1 construct: expressed in transfected cells
T1 sequence (Q8TDU6 1-330): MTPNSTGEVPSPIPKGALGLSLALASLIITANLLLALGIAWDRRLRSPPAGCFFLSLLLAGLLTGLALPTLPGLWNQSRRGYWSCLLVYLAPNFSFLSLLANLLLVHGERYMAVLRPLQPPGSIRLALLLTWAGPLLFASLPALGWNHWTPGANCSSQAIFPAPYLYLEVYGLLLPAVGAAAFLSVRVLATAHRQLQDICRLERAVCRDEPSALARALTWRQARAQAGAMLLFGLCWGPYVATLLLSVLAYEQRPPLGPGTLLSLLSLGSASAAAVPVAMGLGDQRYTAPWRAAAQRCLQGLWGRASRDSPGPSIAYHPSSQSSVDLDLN
In short: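 cAMP HTRF read-out, converted to concentration via standard curve, after a 30 min, 37 °C compound exposure in HBSS with 10 mM HEPES pH 7.4 and 0.5 mM IBMX, compounds serially diluted 3-fold from 10 mM DMSO stock then 100-fold. Cells: stable human TGR5 HEK293, or NCI-H716 expressing TGR5 endogenously.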

[2] = target: T2, endogenously expressed TGR5 in NCI H716 (Homo sapiens, UniProt Q8TDU6); test: Cell-based TGR5 assay, NCI-H716 cells endogenously expressing human TGR5, cAMP by HTRF; conditions: 30 min at 37 C, 22 nM to 50 μM, read-out: pEC50 endogenously expressed TGR5 in NCI H716 (converted)
T2 construct: human caecum carcinoma cell line NCI-H716 which endogenously expresses human TGR5; endogenous in cells; host or cells: NCI-H716
T2 sequence (Q8TDU6 1-330): T1 sequence (Q8TDU6 1-330)
Procedure: Two primary cell based screens were performed. The first utilized HEK293 cells stably transfected to heterologously express human TGR5. The second screen used the human caecum carcinoma cell line NCI-H716 which endogenously expresses human TGR5. In both assays, cells are treated with candidate TGR5 activators and assessed for the increased intercellular levels of cAMP. […]
TGR5-mediated cAMP generation was measured using a homogeneous time resolved fluorescence (HTRF) detection method (Cisbio). Test compounds were dissolved in DMSO to a final concentration of 10 mM. Serial 3-fold dilutions of the stock solution were made in DMSO, and these solutions were diluted 100-fold into Hanks Balanced Salt Solution supplemented with 10 mM HEPES pH 7.4 and 0.5 mM isobutyl methylxanthine (IBMX). Prior to assay, culture medium was replaced with fresh medium, and test compounds diluted in HBSS/HEPES/IBMX were added to the cells and incubated at 37° C. for 30 minutes.
Following incubation with test compounds, cAMP was detected through the successive addition of cAMP labeled with the modified allophyocyanin dye d2 (cAMP-d2) and cryptate-labeled anti-cAMP in lysis buffer, and reading HTRF per the manufacturer's instructions. A standard curve was used to convert the raw HTRF data into [cAMP].

[3] = Compound concentration in gall bladder, LC-MS/MS, 8 h post dose; format: in vivo; conditions: male, C57BL/6, mouse, with contents, mice, 30 mg/kg, gallbladder homogenate, read-out: Mean Example Gallbladder Concentration
Procedure: (§1) Eight hours later, each mouse was heavily anesthetized with isoflurane, the peritoneal cavity was opened and the gallbladder, with its entire contents, was carefully excised and weighed. Blood was collected from the left ventricle of the heart and processed to plasma in EDTA-coated tubes containing aprotinin and DPPIV inhibitor for measurement of total GLP-1 (K150FCC; Meso Scales Discovery, Gaithersburg Md.).
Compound concentrations in the gall bladder were determined as follows: each mouse was heavily anesthetized with isoflurane, the peritoneal cavity was opened and the gallbladder, with its entire contents, was carefully excised. After harvest, gall bladders were homogenized in 100 μL water using a micro-homogenizer. Samples of homogenate were diluted 1:5 in water and precipitated with three volumes of neat acetonitrile. After centrifugation, supernatants were analyzed by LC-MS/MS. The level of test compound present in gall bladder samples was interpolated from a standard curve for each individual compound prepared in a matrix of gallbladder homogenate from vehicle treated animals.

[4] = Compound plasma concentration, LC-MS/MS, 8 h post dose; format: in vivo; conditions: male, C57BL/6, mouse, mice, 30 mg/kg, plasma, read-out: Mean Example Plasma Concentration
Procedure: as §1
Plasma samples were treated with acetonitrile containing an internal standard, precipitated proteins removed by centrifugation. Supernatants were analyzed by LC-MS/MS and compound concentrations were determined by interpolated from a standard curve prepared in plasma.

SMILES	EC50 [1]	EC50 [2]	concentration at 8 h [3]	pEC50 Human TGR5 [1]	concentration at 8 h [4]
CC(OC1(C(=O)N2CCN(C3CC3)c3ccccc32)CC1)c1cc(Cl)ccc1Cl (centres unmarked) [Example 94, (4-cyclopropyl-3,4-dihydroquinoxalin-1(2H)-yl)(1-(1-(2,5-dichlorophenyl)ethoxy)cyclopropyl)methanone]	1260 to 50100 nM	1260 to 50100 nM			
O=C(CCc1cc(Cl)c(CNC2(C(=O)N3CCN(C4CC4)c4ccccc43)CC2)cc1Cl)NCCOCCOCCNC(=O)CCc1cc(Cl)c(CNC2(C(=O)N3CCN(C4CC4)c4ccccc43)CC2)cc1Cl [Example 95, N,N′-(2,2′-(ethane-1,2-diylbis(oxy))bis(ethane-2,1-diyl))bis(3-(2,5-dichloro-4-((1-(4-cyclopropyl-1,2,3,4-tetrahydroquinoxaline-1-carbonyl)cyclopropylamino)methyl)phenyl)propanamide)]	< 100 nM	1260 to 50100 nM			
O=C(NCCCCc1cc(Cl)c(CN2CSC[C@H]2C(=O)N2CCN(C3CC3)c3ccccc32)cc1Cl)NC[C@@H](O)[C@H](O)[C@@H](O)[C@@H](O)CO [Example 177, 1-(4-(2,5-dichloro-4-(((R)-4-(4-cyclopropyl-1,2,3,4-tetrahydroquinoxaline-1-carbonyl)thiazolidin-3-yl)methyl)phenyl)butyl)-3-((2R,3S,4S,5S)-2,3,4,5,6-pentahydroxyhexyl)urea]			100 nM		
O=C(N1CCN(C2CC2)c2ccccc21)C1(OCc2cc(Cl)ccc2Cl)COC1 [Example 179, (4-cyclopropyl-3,4-dihydroquinoxalin-1(2H)-yl)(3-(2,5-dichlorobenzyloxyl)oxetan-3-yl)methanone]	< 100 nM	126 to 1000 nM			
O=C(N1CCN(C2CC2)c2ccccc21)C1(CSc2cc(Cl)ccc2Cl)CC1 [Example 180, (4-cyclopropyl-3,4-dihydroquinoxalin-1(2H)-yl)(1-((2,5-dichlorophenylthio)methyl)cyclopropyl)methanone]	< 100 nM	126 to 1000 nM			
CN(C[C@H](O)[C@@H](O)[C@H](O)[C@H](O)CO)C(=O)NCCOc1cc(Cl)c(CN2CSC[C@H]2C(=O)N2CCN(C3CC3)c3ccccc32)cc1Cl [Example 184]	126 to 1000 nM	126 to 1000 nM			
CN(C[C@H](O)[C@@H](O)[C@H](O)[C@H](O)CO)C(=O)NCCOc1cc(Cl)c(CNC2(C(=O)N3CCN(C4CC4)c4ccccc43)CC2)cc1Cl [Example 185]	126 to 1000 nM	1260 to 50100 nM			
CN(C[C@H](O)[C@@H](O)[C@H](O)[C@H](O)CO)C(=O)NCCCCOc1cc(Cl)c(CNC2(C(=O)N3CCN(C4CC4)c4ccccc43)CC2)cc1Cl [Example 186]	126 to 1000 nM	1260 to 50100 nM			
O=C(O)CCCOc1cc(Cl)c(CNC2(C(=O)N3CCN(C4CC4)c4ccccc43)CC2)cc1Cl [Example 187]	126 to 1000 nM	1260 to 50100 nM			
CN(C[C@H](O)[C@@H](O)[C@H](O)[C@H](O)CO)C(=O)NCCOc1cc(Cl)c(CNC2(C(=O)N3CCN(C4CC4)c4ccccc43)CC2)cc1Cl [Example 188]		126 to 1000 nM		B (B is a pEC50 of 6-6.9)	
CN(C[C@H](O)[C@@H](O)[C@H](O)[C@H](O)CO)C(=O)CCCOc1cc(Cl)c(CN2CSC[C@H]2C(=O)N2CCN(C3CC3)c3ccccc32)cc1Cl [Example 189]	< 100 nM	126 to 1000 nM			
O=C(NCCCc1cc(Cl)c(CNC2(C(=O)N3CCN(C4CC4)c4ccccc43)CC2)cc1Cl)NCCOCCOCCNC(=O)NCCCc1cc(Cl)c(CNC2(C(=O)N3CCN(C4CC4)c4ccccc43)CC2)cc1Cl [Example 212]	1260 to 50100 nM	1260 to 50100 nM			
CN(C[C@H](O)[C@@H](O)[C@H](O)[C@H](O)CO)C(=O)NCCCCc1ccc(Cl)c(CNC2(C(=O)N3CCN(C4CC4)c4ccccc43)CC2)c1 [Example 213]	126 to 1000 nM	1260 to 50100 nM			

The remaining lines, values ahead:

EC50 [1]	EC50 [2]	concentration at 8 h [3]	pEC50 Human TGR5 [1]	concentration at 8 h [4]	SMILES
126 to 1000 nM	126 to 1000 nM				CN(C[C@H](O)[C@@H](O)[C@@H](O)[C@H](O)CO)C(=O)NCCCc1cc(Cl)c(CNC2(C(=O)N3CCN(C4CC4)c4ccccc43)CC2)cc1Cl [Example 214]
126 to 1000 nM	1260 to 50100 nM				CN(C[C@H](O)[C@@H](O)[C@H](O)[C@H](O)CO)C(=O)CCc1ccc(Cl)c(CN2CSC[C@H]2C(=O)N2CCN(C3CC3)c3ccccc32)c1 [Example 215]
126 to 1000 nM	1260 to 50100 nM				CN(C[C@H](O)[C@@H](O)[C@H](O)[C@H](O)CO)C(=O)NCCCc1ccc(Cl)c(CN2CSC[C@H]2C(=O)N2CCN(C3CC3)c3ccccc32)c1 [Example 217]
< 100 nM	< 100 nM				CN(C[C@H](O)[C@@H](O)[C@H](O)[C@H](O)CO)C(=O)CCCCc1cc(Cl)c(CNC2(C(=O)N3CCN(C4CC4)c4ccccc43)CC2)cc1Cl [Example 219]
< 100 nM	< 100 nM				CN(C[C@H](O)[C@@H](O)[C@@H](O)[C@H](O)CO)C(=O)CCCCc1cc(Cl)c(CNC2(C(=O)N3CCN(C4CC4)c4ccccc43)CC2)cc1Cl [Example 220]
126 to 1000 nM	> 50100 nM				O=C(N1CCN(C2CC2)c2ccccc21)C1(OCc2cc(Cl)ccc2Cl)CCCCC1 [Example 242]
126 to 1000 nM	1260 to 50100 nM				CC(C(=O)N1CCN(C2CC2)c2ccccc21)N(C)Cc1cc(Cl)ccc1Cl (centres unmarked) [Example 243]
1260 to 50100 nM	1260 to 50100 nM				CC(C(=O)N1CCN(C2CC2)c2ccccc21)N1CCc2ccc(Cl)cc2C1 (centres unmarked) [Example 244]
1260 to 50100 nM	1260 to 50100 nM				Cc1ccc(Cl)c(CN2CCC[C@H]2C(=O)N2CCN(C3CC3)c3ccccc32)c1F [Example 245]
126 to 1000 nM	1260 to 50100 nM				COc1ccc(COC2(C(=O)N3CCN(C4CC4)c4ccccc43)CC2)c(Cl)c1 [Example 246]
1260 to 50100 nM	1260 to 50100 nM				O=C(N1CCN(C2CC2)c2ccccc21)C1(OCc2c(Cl)cccc2Cl)CC1 [Example 247]
1260 to 50100 nM	1260 to 50100 nM				O=C(N1CCN(C2CC2)c2ccccc21)C1(OCc2cc(Cl)cc(OC(F)(F)F)c2)CC1 [Example 248]
1260 to 50100 nM	1260 to 50100 nM				Cc1ccc(Cl)c(COC2(C(=O)N3CCN(C4CC4)c4ccccc43)CC2)c1F [Example 249]
< 100 nM	< 100 nM				O=C(N1CCN(C2CC2)c2ccccc21)C1(NCc2cc(Cl)ccc2C(F)(F)F)CC1 [Example 254]
< 100 nM	< 100 nM				O=C(N1CCN(C2CC2)c2ccccc21)C1(NCc2cc(C(F)(F)F)ccc2Cl)CC1 [Example 255]
126 to 1000 nM	126 to 1000 nM				COc1cc(Cl)c(CNC2(C(=O)N3CCN(C4CC4)c4ccccc43)CC2)cc1Cl [Example 256]
< 100 nM	126 to 1000 nM				CN(C(=O)C1(OCc2cc(Cl)c(CCCCNC(=O)NC[C@H](O)[C@@H](O)[C@H](O)[C@H](O)CO)cc2Cl)CC1)c1ccccc1OC1CC1 [Example 257]
< 100 nM	126 to 1000 nM				O=C([C@@H]1SCCN1Cc1cc(Cl)ccc1C(F)(F)F)N1CCN(C2CC2)c2ccccc21 [Example 268]
				7.6 ng/mL	O=C(O)CN(CCCCCc1cc(Cl)c(CN2CSC[C@H]2C(=O)N2CCN(C3CC3)c3ccccc32)cc1Cl)CC(=O)O [Example 276]
